Test results: US20050148647A1, “Hemodialysis solutions and uses thereof” (priority 2003, published 2005)

Assay: in vivo
Details: dog, plasma
Method: (§1) Supplementation with casein hydrolysate was evaluated in a dog dialysis model. Two dogs were dialyzed: a control animal underwent four hours of standard hemodialysis. The second animal was dialyzed with dialysate enriched with vitamin-free casein acid hydrolysate under otherwise identical conditions. The dogs were anesthetized and ventilated; venous access for dialysis was achieved via two peripheral venous lines, right femoral and left external jugular. A routine, bicarbonate-based dialysis solution, Centrisol™, was used with both animals and diluted with filtered water by the hemodialysis machine to the appropriate concentration. […] The animals were dialyzed for four hours with a blood flow rate of 300 ml/min and a dialysate flow rate of 500 ml/min. Plasma and dialysate samples were from both animals at t=0 and t=4 hours were analyzed for amino acid content. Additional samples were taken from the serum post-filter and from the dialysate immediately pre-filter.

| concentration at 0 h | concentration at 4 h | Structure (SMILES) |
| --- | --- | --- |
| 658 µM | 712 µM | C[C@H](N)C(=O)O [alanine] |
| 132 µM | 148 µM | N=C(N)NCCC[C@H](N)C(=O)O [arginine] |
| 2 µM | 12 µM | N[C@@H](CC(=O)O)C(=O)O [aspartate] |
| 8 µM | 12 µM | N[C@@H](CS)C(=O)O [cysteine] |
| 306 µM | 260 µM | NCC(=O)O [glycine] |
| 68 µM | 88 µM | N[C@@H](Cc1c[nH]cn1)C(=O)O [histidine] |
| 46 µM | 138 µM | CC[C@H](C)[C@H](N)C(=O)O [isoleucine] |
| 126 µM | 290 µM | CC(C)C[C@H](N)C(=O)O [leucine] |
| 98 µM | 198 µM | NCCCC[C@H](N)C(=O)O [lysine] |
| 44 µM | 86 µM | CSCC[C@H](N)C(=O)O [methionine] |
| 34 µM | 82 µM | N[C@@H](Cc1ccccc1)C(=O)O [phenylalanine] |
| 336 µM | 428 µM | O=C(O)[C@@H]1CCCN1 [proline] |
| 154 µM | 154 µM | N[C@@H](CO)C(=O)O [serine] |
| 108 µM | 128 µM | C[C@@H](O)[C@H](N)C(=O)O [threonine] |
| 52 µM | 52 µM | N[C@@H](Cc1c[nH]c2ccccc12)C(=O)O [tryptophan] |
| 28 µM | 48 µM | N[C@@H](Cc1ccc(O)cc1)C(=O)O [tyrosine] |
| 118 µM | 242 µM | CC(C)[C@H](N)C(=O)O [valine] |

Assay: dog dialysis model: hemodialysis with casein hydrolysate-enriched dialysate, plasma amino acid content;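 note: anesthetized dogs on 4 h hemodialysis with bicarbonate dialysate, one enriched with vitamin-free casein acid hydrolysate, control animal on standard dialysis, plasma amino acids measured at 0 and 4 h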
Details: casein group, over the course of dialysis
Method: as §1

| direction of change of plasma concentration of the amino acid (in words) | Structure (SMILES) |
| --- | --- |
| decreased | NCC(=O)O [glycine] |
| remained the same concentration | N[C@@H](CO)C(=O)O [serine] |
